Results from the NIST ThermoML archive (doi:10.1016/j.fluid.2008.03.009).

Details: Liquid, Vibrating tube method

CCCO [propan-1-ol]
Details | mass density [kg/m3]
298.15 K, 110 kPa | 799.54
298.15 K, 5270 kPa | 803.6
298.15 K, 9870 kPa | 807.01
298.15 K, 14700 kPa | 810.46
298.15 K, 20530 kPa | 814.46
298.15 K, 25030 kPa | 817.44
298.15 K, 30100 kPa | 820.7
298.15 K, 35010 kPa | 823.76
298.15 K, 39560 kPa | 826.52
323.15 K, 590 kPa | 779.78
323.15 K, 5940 kPa | 784.71
323.15 K, 10600 kPa | 788.81
323.15 K, 16000 kPa | 793.2
323.15 K, 20640 kPa | 796.73
323.15 K, 24880 kPa | 799.83
323.15 K, 30800 kPa | 803.99
323.15 K, 35220 kPa | 807.01
323.15 K, 39790 kPa | 810.02
348.15 K, 140 kPa | 757.11
348.15 K, 5170 kPa | 762.68
348.15 K, 10260 kPa | 767.5
348.15 K, 15790 kPa | 772.52
348.15 K, 20560 kPa | 776.41
348.15 K, 24810 kPa | 780.32
348.15 K, 29300 kPa | 784.09
348.15 K, 35560 kPa | 789.01
348.15 K, 39950 kPa | 792.23
373.15 K, 360 kPa | 733.24
373.15 K, 5480 kPa | 739.29
373.15 K, 10290 kPa | 745.11
373.15 K, 15700 kPa | 750.9
373.15 K, 19960 kPa | 755.19
373.15 K, 25170 kPa | 760.17
373.15 K, 30510 kPa | 765.02
373.15 K, 35920 kPa | 769.7
373.15 K, 39780 kPa | 772.91
398.15 K, 620 kPa | 705.55
398.15 K, 5670 kPa | 713.23
398.15 K, 10620 kPa | 720.1
398.15 K, 15580 kPa | 726.46
398.15 K, 20350 kPa | 732.35
398.15 K, 25090 kPa | 737.77
398.15 K, 31150 kPa | 744.07
398.15 K, 35410 kPa | 748.41
398.15 K, 39390 kPa | 752.32
423.15 K, 1570 kPa | 674.63
423.15 K, 5870 kPa | 682.79
423.15 K, 10160 kPa | 690.93
423.15 K, 15320 kPa | 699.32
423.15 K, 20500 kPa | 707.2
423.15 K, 26280 kPa | 715.01
423.15 K, 31600 kPa | 721.36
423.15 K, 35780 kPa | 726.03
423.15 K, 39700 kPa | 730.17
